In PubChem BioAssay (NCI):
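Growth conditions: 96-well plates. Treatment: test compound, 48 hours, 5 concentrations. Analysis: linear interpolation between bracketing concentrations; unreached endpoints set to highest concentration. GI50: concentration for 50% inhibition of growth. TGI is the concentration that stops growth completely.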

Experiments:
Assay in all cases: growth of human tumour cells (NCI), 48 h
NCI/ADR-RES ovarian = system: NCI/ADR-RES ovarian
RXF 393 renal = system: RXF 393 renal
786-0 renal = system: 786-0 renal
LOX IMVI melanoma = system: LOX IMVI melanoma
SNB-75 CNS = system: SNB-75 CNS
T-47D breast = system: T-47D breast
OVCAR-5 ovarian = system: OVCAR-5 ovarian
KM12 colon = system: KM12 colon
EKVX NSCLC = system: EKVX NSCLC
HCC-2998 colon = system: HCC-2998 colon

| Compound | GI50 (NCI/ADR-RES ovarian) | TGI (NCI/ADR-RES ovarian) | GI50 (RXF 393 renal) | TGI (RXF 393 renal) | GI50 (786-0 renal) | TGI (786-0 renal) | GI50 (LOX IMVI melanoma) | TGI (LOX IMVI melanoma) | GI50 (SNB-75 CNS) | TGI (SNB-75 CNS) | GI50 (T-47D breast) | TGI (T-47D breast) | GI50 (OVCAR-5 ovarian) | TGI (OVCAR-5 ovarian) | GI50 (KM12 colon) | TGI (KM12 colon) | GI50 (EKVX NSCLC) | TGI (EKVX NSCLC) | GI50 (HCC-2998 colon) | TGI (HCC-2998 colon) |
| --- | --- | --- | --- | --- | --- | --- | --- | --- | --- | --- | --- | --- | --- | --- | --- | --- | --- | --- | --- | --- |
| N=C(N)SCc1ccc([N+](=O)[O-])cc1[N+](=O)[O-] | 23 µM | 89 µM | 1.38 µM | 4.13 µM | 11.8 µM | 27.8 µM | 8.66 µM | 25 µM | 19.6 µM | 50.5 µM | 2.59 µM | 11.4 µM | 23.1 µM | 40 µM | 9.5 µM | 22.7 µM | 11 µM | 25.8 µM | 6.05 µM | 18.1 µM |
| COC(=O)/C(=C\c1c(-c2ccccc2)[nH]c2ccccc12)S(C)(=O)=O | 3.28 µM | > 100 µM | 7.23 µM | 68.2 µM | 7.46 µM | 23.9 µM | 5.07 µM | 17.6 µM | 2.26 µM | 9.61 µM | 2.82 µM | 30.8 µM | 19.6 µM | 49.8 µM | 1.48 µM | 4.42 µM | 8.92 µM | > 100 µM | 8.78 µM | 22.4 µM |
| CC(OC(=O)N(N(CCCl)S(C)(=O)=O)S(C)(=O)=O)c1ccc([N+](=O)[O-])cc1 (stereo not given) | 35.4 µM | > 100 µM | > 100 µM | > 100 µM | 44.7 µM | > 100 µM | 51.2 µM | > 100 µM | > 89.1 µM | > 100 µM | > 69.2 µM | > 100 µM | > 100 µM | > 100 µM | > 82 µM | > 100 µM | 23.4 µM | > 76.9 µM | 56 µM | > 100 µM |
| FC(F)(F)c1[nH]ncc1-c1nc2ccc3[nH]ncc3c2c2c1CCCC2 | 2.49 µM | 13.9 µM | 1.13 µM | 2.35 µM | 1.55 µM | 4.08 µM | 1.09 µM | 2.6 µM | 1.1 µM | 2.52 µM | 2.03 µM | 9.39 µM | 2.51 µM | 13.1 µM | 1.19 µM | 11.8 µM | 1.99 µM | 7.29 µM | 1.58 µM | 3.89 µM |
| CN(C)CCOc1ccc(-c2cc(-c3ccc4c(c3)CC/C4=N\O)c(-c3ccncc3)o2)cc1 | 5.05 µM | 11 µM | 3.07 µM | 6.78 µM | 3.55 µM | 7.75 µM | 1.66 µM | 5.63 µM | 1.27 µM | 6 µM | 4.66 µM | 9.62 µM | 3.32 µM | 6.79 µM | 3.57 µM | 7.28 µM | 3.93 µM | 8.07 µM | 5.5 µM | 9.5 µM |
| Oc1c(CNCCNCc2cc(Cl)cc(Cc3ccccc3)c2O)cc(Cl)cc1Cc1ccccc1 | 0.364 µM | 18.3 µM | 0.414 µM | 3.97 µM | 0.375 µM | 10.4 µM | 0.136 µM | 1.66 µM | 1.65 µM | 50.2 µM | 0.391 µM | 37.9 µM | 1.2 µM | > 100 µM | 0.34 µM | 15.2 µM | 0.193 µM | > 100 µM | 0.451 µM | 10.1 µM |
| CC(=O)/C(=C\c1c(-c2ccccc2)[nH]c2ccccc12)S(=O)(=O)c1ccccc1 | 0.513 µM | 5.62 µM | 1.25 µM | 2.8 µM | 1.62 µM | 3.44 µM | 1.39 µM | 3.27 µM | 1.59 µM | 14.6 µM | 1.26 µM | 7.03 µM | 2.01 µM | 5.46 µM | 1.01 µM | 2.65 µM | 3.22 µM | > 100 µM | 1.38 µM | 2.78 µM |
| Clc1ccc(N2CCC(N3CCCC3)CC2)cc1-c1nc2ccccc2[nH]1 | 29.4 µM | > 100 µM | 12.9 µM | 26.8 µM | 14.7 µM | 28.7 µM | 18.1 µM | 35.5 µM | 15.5 µM | 39 µM | 21.6 µM | 88.1 µM | 26.5 µM | > 69.4 µM | 22.6 µM | 55.2 µM | 37.9 µM | > 100 µM | 18.6 µM | 37.4 µM |
| Nc1cc2nc3ccccc3oc-2cc1=O | 9.16 µM | > 88.9 µM | 5.07 µM | 14.2 µM | 20.7 µM | > 83.4 µM | 0.606 µM | 2.23 µM | 1.82 µM | 4.63 µM | 14.9 µM | > 100 µM | 2.41 µM | 5.79 µM | 3.71 µM | 43.5 µM | 7.38 µM | > 64.2 µM | 4.34 µM | 17.4 µM |
| CSc1nc(N)c2c(n1)NC(c1ccccc1)C1CCc3ccccc3C1=N2 (stereo not given) | 5.58 µM | > 100 µM | 4.71 µM | > 100 µM | > 100 µM | > 100 µM | 7.16 µM | > 100 µM | > 100 µM | > 100 µM | 2.27 µM | 15.7 µM | > 100 µM | > 100 µM | 6.52 µM | > 100 µM | 7 µM | > 100 µM | > 100 µM | > 100 µM |
